Measurements: PMC9582194, “The effect of helix-inducing constraints and downsizing upon a transcription block survival-derived functional cJun antagonist” (Cell Reports. Physical Science, 2022)

Legend:
[1] = CD thermal denaturation of peptide alone, 222 nm
Description: The LZ domain of HW1 has four point mutations from its parent sequence, FosW, which is known to homodimerize.[24]
Protein/DNA samples were suspended in 20 mM potassium phosphate, 150 mM potassium fluoride, and 2 mM TCEP (pH 7.4). cJun was added to DNA before addition of antagonist peptide, and these samples were equilibrated for 30 min before measurement.

cJun = biological target: T1, cJun (Homo sapiens, UniProt P05412); assay: CD thermal denaturation of peptide-cJun heterodimers (Tm); format: binding; conditions: CD ellipticity at 222 nm, 1-90 °C; peptide (5 μM)/cJun (5 μM); 20 mM potassium phosphate, 150 mM potassium fluoride, 2 mM TCEP pH 7.4; two-state fit; duplicate experiments, ± one SD
T1 construct: The same 60 amino acid cJun construct, encompassing the entire bZIP domain, was used for all experiments
T1 sequence (P05412 252-315 limits assumed): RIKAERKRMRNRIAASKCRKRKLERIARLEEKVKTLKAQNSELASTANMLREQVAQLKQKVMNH
Procedure, shortened: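 Peptide/cJun heterodimers (each 5 μM, 60-residue cJun bZIP construct) melted while CD was monitored to give Tm. For antagonism, peptides titrated into pre-incubated cJun (20 μM) with TRE DNA (5 μM); shift of a DNA-specific CD peak toward free TRE gave fraction bound, Hill fit gave IC50; triplicates.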

[2] = Peptide fraction helicity by CD at 222 nm, peptide-only samples; format: physicochemical; conditions: CD signal at 222 nm of peptide-only samples; pH 7.4 phosphate/KF/TCEP buffer; duplicate experiments
Procedure, shortened: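 Fraction helicity of each peptide alone was derived from the CD signal at 222 nm. Separately, thermal denaturation of heterodimers with a 60-residue cJun bZIP construct was used to obtain Tm.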

Ac-LVVEEDVLEEEIEQLEERNYALRKEIEDLQKQLEKL-NH2 [HW5]
Tm of peptide alone [1]: 41 °C | Tm of peptide-cJun heterodimer (cJun): 62.8 ± 1.0 °C | fH, peptide fraction helicity [2]: 46.7%
